The results in this text go back to ChEMBL document CHEMBL1255515, “Design of a series of bicyclic HIV-1 integrase inhibitors. Part 2: azoles: effective metal chelators” (Bioorg Med Chem Lett, 2010).

The test system of assay [1] is Human immunodeficiency virus 1. As to the kind of experiment: Antiviral activity against HIV1 assessed as inhibition of viral replication after 6 days by cell based p24 antigen assay. The note with it: Human immunodeficiency virus 1, 144 h.
For assay [2], the target named is Human immunodeficiency virus type 1 integrase (Human immunodeficiency virus 1, UniProt Q7ZJM1). As to the kind of experiment: Inhibition of HIV-1 integrase-mediated 3'-processing and strand transfer activity.
Assay [3] deals with Human immunodeficiency virus 1. As to the kind of experiment: Antiviral activity against HIV1 by cell based luciferase assay. The class given is functional, organism-based.
The test system of assay [4] is Human immunodeficiency virus 1. As to the kind of experiment: Antiviral activity against HIV1 by cell based luciferase assay in presence of 50% serum. The class given is functional.

Where only a bound is given, the exact number is not on record here.

Chain of Human immunodeficiency virus type 1 integrase (Q7ZJM1 whole entry): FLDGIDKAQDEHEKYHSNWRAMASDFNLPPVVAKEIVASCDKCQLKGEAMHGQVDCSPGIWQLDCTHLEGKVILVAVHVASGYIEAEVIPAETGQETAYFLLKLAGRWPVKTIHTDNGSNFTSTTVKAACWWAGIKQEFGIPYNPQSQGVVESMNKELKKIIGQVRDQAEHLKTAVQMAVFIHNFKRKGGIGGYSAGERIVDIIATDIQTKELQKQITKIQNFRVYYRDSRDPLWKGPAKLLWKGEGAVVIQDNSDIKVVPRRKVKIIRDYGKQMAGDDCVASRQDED

The term EC50 denotes the concentration at which the effect is half-maximal. The term IC50 denotes the concentration needed to halve the response being measured. The low end stands for greater potency in that assay, the high end for weaker potency in that assay. Turning to `O=c1c(O)c(-c2nnc(Cc3ccc(F)cc3)s2)nc2ccc(N3CCOCC3)cn12`, in assay [1], the EC50 came out at 14 nM. The compound further returned an IC50 in assay [2] of 225 nM.

As to `O=c1c(O)c(-c2nnc(Cc3ccc(F)cc3)[nH]2)nc2ccc(N3CCOCC3)cn12`, a half-maximal effect in assay [3] (EC50) was put at 198 nM.

`O=c1c(O)c(-c2ncc(Cc3ccc(F)cc3)[nH]2)nc2c(Br)cc(N3CCOCC3)cn12`: the midpoint of the response in assay [3], the EC50, lay at 29 nM.

Turning to `O=c1c(O)c(-c2ncc(Cc3ccc(F)cc3)o2)nc2c(N3CCCS3(=O)=O)cc(N3CCOCC3)cn12`, the EC50 in assay [3] is greater than 1000 nM.

For `O=C(NCc1ccc(F)cc1)c1nc2ccc(N3CCOCC3)cn2c(=O)c1O`, the EC50 was found to be 215 nM in assay [3] and 28 nM in assay [1]. Besides, the IC50 in assay [2] was 775 nM.

`O=c1c(O)c(-c2noc(Cc3ccc(F)cc3)n2)nc2ccc(N3CCOCC3)cn12`: the EC50 in assay [1] turned out to be 99 nM. In assay [2], this compound gave an IC50 of 450 nM.

For the compound `O=c1c(O)c(-c2ncc(Cc3ccc(F)cc3)o2)nc2ccc(N3CCOCC3)cn12`, the EC50 was 21.5 nM in assay [3] and 6 nM in assay [1]. For the same compound, the concentration for half-maximal inhibition (IC50) in assay [2] worked out at 59 nM.

On to `CN1CCN(c2cc(N3CCOCC3)cn3c(=O)c(O)c(-c4ncc(Cc5ccc(F)cc5)[nH]4)nc23)S1(=O)=O`, for which a half-maximal response in assay [3] (EC50) required 11 nM. Also, 70 nM corresponded to half-maximal inhibition in assay [2] (IC50).

As for `O=C1CCCN1c1cc(N2CCOCC2)cn2c(=O)c(O)c(-c3ncc(Cc4ccc(F)cc4)[nH]3)nc12`, the EC50 in assay [3] turned out to be 39 nM. Further, half-maximal inhibition in assay [2] (IC50) required 47 nM.

As for `O=c1c(O)c(-c2ncc(Cc3ccc(F)cc3)s2)nc2ccc(N3CCOCC3)cn12`, the EC50 was found to be 32 nM in assay [3] and 16.5 nM in assay [1]. The compound also had a half-inhibitory concentration (IC50) in assay [2] of 20 nM.

With `O=c1c(O)c(-c2nnc(Cc3ccc(F)cc3)o2)nc2ccc(N3CCOCC3)cn12`, the half-maximal effective concentration (EC50) in assay [1] stood at 215 nM. In assay [2], this compound had a half-inhibitory concentration (IC50) of 310 nM.

In the case of `O=c1c(O)c(-c2nc(Cc3ccc(F)cc3)no2)nc2ccc(N3CCOCC3)cn12`, in assay [3], the EC50 was greater than 1000 nM. In assay [2], this compound displayed an IC50 greater than 10000 nM.

Consider `O=c1c(O)c(-c2ncc(Cc3ccc(F)cc3)[nH]2)nc2c(N3CCCS3(=O)=O)cc(N3CCOCC3)cn12`, for which, in assay [3], the EC50 was greater than 1000 nM. The IC50 in assay [2] was 95 nM.

As to `O=c1c(O)c(-c2ncc(Cc3ccc(F)cc3)[nH]2)nc2ccc(N3CCOCC3)cn12`, a half-maximal effect in assay [3] (EC50) was put at 62 nM. The IC50 in assay [2] turned out to be 45 nM.

For `O=c1c(O)c(-c2ncc(Cc3ccc(F)cc3)o2)nc2c(I)cc(N3CCOCC3)cn12`, the figures for the EC50 in assay [3] and in assay [1] were 9 nM and 2.6 nM, respectively. The compound further gave a half-inhibitory concentration (IC50) in assay [2] of 170 nM.

In assay [3], `O=C1OCCN1c1cc(N2CCOCC2)cn2c(=O)c(O)c(-c3ncc(Cc4ccc(F)cc4)[nH]3)nc12` gave an EC50 of 64 nM. This compound displayed an IC50 in assay [2] of 35 nM.

Compound `O=c1c(O)c(-c2ncc(Cc3ccc(F)cc3)s2)nc2c(N3CCCS3(=O)=O)cc(N3CCOCC3)cn12` registered an EC50 in assay [3] of 11.5 nM. The same compound gave an IC50 in assay [2] of 36 nM.

For the compound `O=c1c(O)c(-c2ncc(Cc3ccc(F)cc3)s2)nc2c(Br)cc(N3CCOCC3)cn12`, the EC50 in assay [3] worked out at 14 nM; in assay [1], 4.35 nM. In addition, the half-inhibitory concentration (IC50) in assay [2] came out at 42 nM.

`CCN(C(=O)C(=O)N(C)C)c1cc(N2CCOCC2)cn2c(=O)c(O)c(-c3ncc(Cc4ccc(F)cc4)[nH]3)nc12` gave an EC50 in assay [3] of 86 nM.

For the compound `CC(C)N1CCN(c2cc(N3CCOCC3)cn3c(=O)c(O)c(-c4ncc(Cc5ccc(F)cc5)[nH]4)nc23)C1=O`, a half-maximal response in assay [3] (EC50) required 6 nM. For the same compound, in assay [4], the “fold change (FC)” value is reported as less than 3.
